According to patent US10513694B2, “Thienopyrrole compounds and uses thereof” (PROMEGA CORPORATION, priority 2015, dated 2019):

Molecular target: NANOLUC® enzyme (Oplophorus gracilirostris, UniProt Q9GV45, A31E/A60N/A81I/F95D/I117V/K70R/L54V/L99Q/M102K/N193R/P142E/Q151K/Q38R/Q45L/V71I/Y165I)
Assay: Inhibitor IC50 determination (NANOLUC enzyme, furimazine)
Format: biochemical
Settings: 0.4 ng/ml NANOLUC enzyme, final furimazine 10 uM (at Km); read-out: IC50
Experimental: The following example provides the IC50 values for the compounds disclosed herein. See Table 5 NANOLUC® enzyme was diluted to 0.4 ng/ml in CO2 independent media+10% FBS to make the detection reagent. A 3× dilution series of each inhibitor was then made in the detection reagent. A “no inhibitor” control was also made for each sample. 50 ul of each inhibitor dilution was mixed with 50 ul of NanoGlo buffer containing 20 uM furimazine. (Final furimazine concentration is 10 uM which is at Km.), and luminescence measured. Each sample was normalized to the “no inhibitor” control. The […] values were then determined using GraphPad Prism (log [inhibitor] vs. normalized response).

Chain of NANOLUC® enzyme (Q9GV45 28-196 with tags or gaps with the stated changes limits assumed): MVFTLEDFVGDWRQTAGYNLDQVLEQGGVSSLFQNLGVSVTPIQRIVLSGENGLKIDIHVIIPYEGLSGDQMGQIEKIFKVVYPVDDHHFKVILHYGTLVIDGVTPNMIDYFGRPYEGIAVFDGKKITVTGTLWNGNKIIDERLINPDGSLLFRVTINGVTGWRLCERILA

Compound	IC50 [µM]
N-(trans-4-((6-(3′,6′-dihydroxy-3-oxo-3H-spiro[isobenzofuran-1,9′-xanthene]-5(6)-carboxamido)hexyl)carbamoyl)cyclohexyl)-4-(2-(ethyl(m-tolyl)amino)-2-oxoethyl)-4H-thieno[3,2-b]pyrrole-5-carboxamide [JRW-0200]	0.078

Same assay, conditions: IC50 (uM), 0.4 ng/ml NANOLUC enzyme, final furimazine 10 uM (at Km)

Compound	IC50 [µM]
CCN(C(=O)Cn1c(C(=O)N[C@H]2CC[C@@H](C(=O)NCCCCCC(=O)O)CC2)cc2sccc21)c1cccc(C)c1 [JRW-0264, 6-(cis-4-(4-(2-(ethyl(m-tolyl)amino)-2-oxoethyl)-4H-thieno[3,2-b]pyrrole-5-carboxamido)cyclohexane-1-carboxamido)hexanoic acid]	0.24
CCN(C(=O)Cn1c(C(=O)NC[C@H]2CC[C@H](C(=O)NCCCCCC(=O)O)CC2)cc2sccc21)c1cccc(C)c1 [JRW-0268, 6-(trans-4-((4-(2-(ethyl(m-tolyl)amino)-2-oxoethyl)-4H-thieno[3,2-b]pyrrole-5-carboxamido)methyl)cyclohexane-1-carboxamido)hexanoic acid]	4.3
CCN(C(=O)Cn1c(C(=O)N[C@H]2CC[C@H](C(=O)OC)CC2)cc2sccc21)c1ccccc1 [JRW-0318, Methyl trans-4-(4-(2-(ethyl(phenyl)amino)-2-oxoethyl)-4H-thieno[3,2-b]pyrrole-5-carboxamido)cyclohexane-1-carboxylate]	0.11
CCN(C(=O)Cn1c(C(=O)N[C@H]2CC[C@H](C(=O)OC)CC2)cc2sccc21)c1cccc(C#N)c1 [JRW-0321, Methyl trans-4-(4-(2-((3-cyanophenyl)(ethyl)amino)-2-oxoethyl)-4H-thieno[3,2-b]pyrrole-5-carboxamido)cyclohexane-1-carboxylate]	0.16
CCN(C(=O)Cn1c(C(=O)N[C@H]2CC[C@H](C(=O)OC)CC2)cc2sccc21)c1cccc(C(N)=O)c1 [JRW-0322, Methyl trans-4-(4-(2-((3-carbamoylphenyl)(ethyl)amino)-2-oxoethyl)-4H-thieno[3,2-b]pyrrole-5-carboxamido)cyclohexane-1-carboxylate]	0.2
CCc1cccc(N(CC)C(=O)Cn2c(C(=O)N[C@H]3CC[C@H](C(=O)OC)CC3)cc3sccc32)c1 [JRW-0326, Methyl trans-4-(4-(2-(ethyl(3-ethylphenyl)amino)-2-oxoethyl)-4H-thieno[3,2-b]pyrrole-5-carboxamido)cyclohexane-1-carboxylate]	0.0039
CCN(C(=O)Cn1c(C(=O)N[C@H]2CC[C@H](C(=O)OC)CC2)cc2sccc21)c1cccc(OC)c1 [JRW-0327, Methyl trans-4-(4-(2-(ethyl(3-methoxyphenyl)amino)-2-oxoethyl)-4H-thieno[3,2-b]pyrrole-5-carboxamido)cyclohexane-1-carboxylate]	0.11
CCN(C(=O)Cn1c(C(=O)N[C@H]2CC[C@H](C(=O)OC)CC2)cc2sccc21)c1ccccc1C [JRW-0330, Methyl trans-4-(4-(2-(ethyl(o-tolyl)amino)-2-oxoethyl)-4H-thieno[3,2-b]pyrrole-5-carboxamido)cyclohexane-1-carboxylate]	0.7
COC(=O)[C@H]1CC[C@H](NC(=O)c2cc3sccc3n2CC(=O)N2CCCc3cc(C)ccc32)CC1 [JRW-0331, Methyl trans-4-(4-(2-(6-methyl-3,4-dihydroquinolin-1(2H)-yl)-2-oxoethyl)-4H-thieno[3,2-b]pyrrole-5-carboxamido)cyclohexane-1-carboxylate]	16.9
CCN(C(=O)Cn1c(C(=O)N[C@H]2CC[C@H](C(=O)OC)CC2)cc2sccc21)c1ccc(C)cc1 [JRW-0334, Methyl trans-4-(4-(2-(ethyl(p-tolyl)amino)-2-oxoethyl)-4H-thieno[3,2-b]pyrrole-5-carboxamido)cyclohexane-1-carboxylate]	1.3
CCN(C(=O)Cn1c(C(=O)N[C@H]2CC[C@H](C(=O)OC)CC2)cc2sccc21)c1ccc(CO)cc1 [JRW-0335, Methyl trans-4-(4-(2-(ethyl(4-(hydroxymethyl)phenyl)amino)-2-oxoethyl)-4H-thieno[3,2-b]pyrrole-5-carboxamido)cyclohexane-1-carboxylate]	1.9
CCN(C(=O)Cn1c(C(=O)N[C@H]2CC[C@H](C(=O)OC)CC2)cc2ccccc21)c1cccc(C)c1 [JRW-0355, Methyl trans-4-(1-(2-(ethyl(m-tolyl)amino)-2-oxoethyl)-1H-indole-2-carboxamido)cyclohexane-1-carboxylate]	0.052
CCN(C(=O)Cn1c(C(=O)N[C@H]2CC[C@H](C(=O)OC)CC2)cc2ccc(OC)cc21)c1cccc(C)c1 [JRW-0359, Methyl trans-4-(1-(2-(ethyl(m-tolyl)amino)-2-oxoethyl)-6-methoxy-1H-indole-2-carboxamido)cyclohexane-1-carboxylate]	3
CCN(C(=O)Cn1c(C(=O)N[C@H]2CC[C@H](C(=O)OC)CC2)cc2occc21)c1cccc(C)c1 [JRW-360, Methyl trans-4-(4-(2-(ethyl(m-tolyl)amino)-2-oxoethyl)-4H-furo[3,2-b]pyrrole-5-carboxamido)cyclohexane-1-carboxylate]	0.61
CCc1cccc(N(CC)C(=O)Cn2c(C(=O)N[C@H]3CC[C@H](C(=O)OC)CC3)cc3ccccc32)c1 [JRW-0424, Methyl trans-4-(1-(2-(ethyl(3-ethylphenyl)amino)-2-oxoethyl)-1H-indole-2-carboxamido)cyclohexane-1-carboxylate]	0.005
CCc1cccc(N(CC)C(=O)Cn2c(C(=O)N[C@H]3CC[C@H](C(=O)NCCCCCCO)CC3)cc3sccc32)c1 [JRW-0429, 4-(2-(Ethyl(3-ethylphenyl)amino)-2-oxoethyl)-N-(trans-4-((6-hydroxyhexyl)carbamoyl)cyclohexyl)-4H-thieno[3,2-b]pyrrole-5-carboxamide]	0.0021
CCc1cccc(N(CC)C(=O)Cn2c(C(=O)N[C@H]3CC[C@H](C(=O)NCCCCCCO)CC3)cc3ccccc32)c1 [JRW-0430, 1-(2-(Ethyl(3-ethylphenyl)amino)-2-oxoethyl)-N-(trans-4-((6-hydroxyhexyl)carbamoyl)cyclohexyl)-1H-indole-2-carboxamide]	0.0021
CCc1cccc(N(CC)C(=O)Cn2c(C(=O)N[C@H]3CC[C@H](C(=O)NCCCCCCS(=O)(=O)O)CC3)cc3sccc32)c1 [JRW-0432, Sodium 6-(trans-4-(4-(2-(ethyl(3-ethylphenyl)amino)-2-oxoethyl)-4H-thieno[3,2-b]pyrrole-5-carboxamido)cyclohexane-1-carboxamido)hexane-1-sulfonate]	0.0031
CCc1cccc(N(CC)C(=O)Cn2c(C(=O)N[C@H]3CC[C@H](C(=O)NCCCCCCS(=O)(=O)O)CC3)cc3ccccc32)c1 [JRW-0434, Sodium 6-(trans-4-(1-(2-(ethyl(3-ethylphenyl)amino)-2-oxoethyl)-1H-indole-2-carboxamido)cyclohexane-1-carboxamido)hexane-1-sulfonate]	0.0019
CCN(C(=O)Cn1cccc1C(=O)N[C@H]1CC[C@H](C(=O)OC)CC1)c1cccc(C)c1 [JRW-0456, Methyl trans-4-(1-(2-(ethyl(m-tolyl)amino)-2-oxoethyl)-1H-pyrrole-2-carboxamido)cyclohexane-1-carboxylate]	7.4
CCN(C(=O)Cn1c(C(=O)N[C@H]2CC[C@H](C(=O)OC)CC2)cc2sccc21)c1cccc(C(C)C)c1 [JRW-0460, Methyl trans-4-(4-(2-(ethyl(3-isopropylphenyl)amino)-2-oxoethyl)-4H-thieno[3,2-b]pyrrole-5-carboxamido)cyclohexane-1-carboxylate]	0.12
CCN(C(=O)Cn1c(C(=O)N[C@H]2CC[C@H](C(=O)OC)CC2)cc2sccc21)c1cccc(CO)c1 [JRW-0461, Methyl trans-4-(4-(2-(ethyl(3-(hydroxymethyl)phenyl)amino)-2-oxoethyl)-4H-thieno[3,2-b]pyrrole-5-carboxamido)cyclohexane-1-carboxylate]	0.077
CCN(C(=O)Cn1c(C(=O)N[C@H]2CC[C@H](C(=O)OC)CC2)cc2ccsc21)c1cccc(C)c1 [JRW-0463, Methyl trans-4-(6-(2-(ethyl(m-tolyl)amino)-2-oxoethyl)-6H-thieno[2,3-b]pyrrole-5-carboxamido)cyclohexane-1-carboxylate]	0.71
CCN(C(=O)Cn1c(C(=O)N[C@H]2CC[C@H](C(=O)OC)CC2)cc2sccc21)c1cccc(CBr)c1 [JRW-0466, Methyl trans-4-(4-(2-((3-(bromomethyl)phenyl)(ethyl)amino)-2-oxoethyl)-4H-thieno[3,2-b]pyrrole-5-carboxamido)cyclohexane-1-carboxylate]	0.0018
CCN(C(=O)Cn1c(C(=O)N[C@H]2CC[C@H](C(=O)OC)CC2)cc2sccc21)c1cccc(N(C)C)c1 [JRW-0478, Methyl trans-4-(4-(2-((3-(dimethylamino)phenyl)(ethyl)amino)-2-oxoethyl)-4H-thieno[3,2-b]pyrrole-5-carboxamido)cyclohexane-1-carboxylate]	0.065
CCN(C(=O)Cn1c(C(=O)N[C@H]2CC[C@H](C(=O)OC)CC2)cc2sccc21)c1cccc(CC(C)C)c1 [JRW-0508, Methyl trans-4-(4-(2-(ethyl(3-isobutylphenyl)amino)-2-oxoethyl)-4H-thieno[3,2-b]pyrrole-5-carboxamido)cyclohexane-1-carboxylate]	0.027
